Results taken from patent US20230233569A1 (Revolution Medicines, Inc., priority 2020, published 2023).
Several values for one entry are separate records, joined by “and”; a condition that tells them apart may be missing. Identical values can stand only once. Like-named read-outs stand apart in the source and are kept apart here.

What was measured:
Capan-1 (K-Ras G12V) = experiment: CellTiter-Glo cell viability assay, 5-day treatment; type: cell-based; details: Homo sapiens, CAPAN-1, 120 h, 5-day treatment; read-out: Capan-1 Cell Viability assay data (K-Ras G12V, IC50)
In short: (§1)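 Viability is read as luminescence on day 5 after direct compound addition to plated cells, following about 30 minutes' room-temperature equilibration. Each signal is scaled to mean DMSO as 100%.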

NCI-H358 (K-Ras G12C) = experiment: as above; type: cell-based; details: Homo sapiens, NCI-H358, 120 h, 5-day treatment; read-out: H358 Cell Viability assay data (K-Ras G12C, IC50)
In short: as §1

KRAS G12C = KRAS G12C (Homo sapiens, UniProt P01116+P62937, G12C); experiment: Disruption of BRAF RBD interaction with Ras (FRET / MOA assay, with Cyclophilin A); type: biochemical
In short: (§2)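 TR-FRET readout: a drop in ratio relative to DMSO wells marks disruption of the K-Ras:BRAF RBD complex via compound-induced K-Ras–Cyclophilin A ternary complex. Dosing used ten 3-fold steps from 30 μM final, 3 h at 25 °C, then Eu-anti-His 10 nM plus APC-anti-GST 50 nM for another 1.5 h. Values are IC50s.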

KRAS G12D = KRAS G12D (Homo sapiens, UniProt P01116+P62937, G12D); experiment: as above; type: biochemical
In short: as §2

KRAS G12S = KRAS G12S (Homo sapiens, UniProt P01116+P62937, G12S); experiment: as above; type: biochemical
In short: as §2

KRAS G12V = KRAS G12V (Homo sapiens, UniProt P01116+P62937, G12V); experiment: as above; type: biochemical
In short: as §2

KRAS G13C = KRAS G13C (Homo sapiens, UniProt P01116+P62937, G13C); experiment: as above; type: biochemical
In short: as §2

KRAS G13D = KRAS G13D (Homo sapiens, UniProt P01116+P62937, G13D); experiment: as above; type: biochemical
In short: as §2

KRAS WT = KRAS WT (Homo sapiens, UniProt P01116+P62937); experiment: as above; type: biochemical
In short: as §2

NRAS G12C = NRAS G12C (Homo sapiens, UniProt P01111+P62937, G12C); experiment: as above; type: biochemical
[1] = read-out: KRAS G12C FRET data, IC50
[2] = read-out: KRAS G12D FRET data, IC50
[3] = read-out: KRAS G12S FRET data, IC50
[4] = KRAS G12V, read-out: KRAS G12V FRET data IC50
[5] = read-out: KRAS G13C FRET data, IC50
[6] = KRAS G13D, read-out: KRAS G13D FRET data IC50
[7] = KRAS WT, read-out: KRAS WT FRET data IC50
[8] = NRAS G12C, read-out: NRAS G12C FRET data IC50

KRAS G12S, sequence (P01116 1-169 isoform P01116-2 G12S limits assumed): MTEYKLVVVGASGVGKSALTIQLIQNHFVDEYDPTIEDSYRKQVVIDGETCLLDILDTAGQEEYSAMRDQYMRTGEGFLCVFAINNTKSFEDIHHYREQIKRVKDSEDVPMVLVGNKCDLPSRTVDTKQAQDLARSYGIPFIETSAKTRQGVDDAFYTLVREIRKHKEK
KRAS G12S, sequence (P62937 whole entry): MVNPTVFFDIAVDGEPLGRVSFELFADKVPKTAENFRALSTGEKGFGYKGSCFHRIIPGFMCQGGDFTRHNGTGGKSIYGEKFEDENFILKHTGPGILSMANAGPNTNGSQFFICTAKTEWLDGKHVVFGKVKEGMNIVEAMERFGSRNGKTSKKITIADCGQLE
KRAS G13D, sequence (P01116 1-169 isoform P01116-2 G13D limits assumed): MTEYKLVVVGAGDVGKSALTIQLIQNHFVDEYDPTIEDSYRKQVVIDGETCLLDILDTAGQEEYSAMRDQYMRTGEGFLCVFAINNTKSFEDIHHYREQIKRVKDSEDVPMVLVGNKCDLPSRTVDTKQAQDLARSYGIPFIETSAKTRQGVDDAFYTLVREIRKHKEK
KRAS G13D, sequence (P62937 whole entry): as the sequence (P62937 whole entry) above
KRAS G13C, sequence (P01116 1-169 isoform P01116-2 G13C): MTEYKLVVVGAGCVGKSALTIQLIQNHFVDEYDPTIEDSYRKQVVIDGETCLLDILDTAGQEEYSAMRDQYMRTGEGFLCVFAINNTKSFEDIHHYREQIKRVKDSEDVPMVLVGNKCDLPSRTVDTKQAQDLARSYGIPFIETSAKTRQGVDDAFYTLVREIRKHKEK
KRAS G13C, sequence (P62937 whole entry): as the sequence (P62937 whole entry) above
KRAS G12V, sequence (P01116 1-169 isoform P01116-2 G12V limits assumed): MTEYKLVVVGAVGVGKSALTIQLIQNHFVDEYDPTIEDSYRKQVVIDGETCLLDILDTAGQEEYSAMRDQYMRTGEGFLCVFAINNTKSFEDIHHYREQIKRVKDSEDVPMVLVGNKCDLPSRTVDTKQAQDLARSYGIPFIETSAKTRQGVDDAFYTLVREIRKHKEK
KRAS G12V, sequence (P62937 whole entry): as the sequence (P62937 whole entry) above
NRAS G12C, sequence (P01111 whole entry G12C): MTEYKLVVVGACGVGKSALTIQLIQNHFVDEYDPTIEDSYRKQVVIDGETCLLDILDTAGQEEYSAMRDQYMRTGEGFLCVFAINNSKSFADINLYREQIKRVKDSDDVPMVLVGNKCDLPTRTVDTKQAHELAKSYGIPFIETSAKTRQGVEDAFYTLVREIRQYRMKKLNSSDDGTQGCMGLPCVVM
NRAS G12C, sequence (P62937 whole entry): as the sequence (P62937 whole entry) above
KRAS G12C, sequence (P01116 1-169 isoform P01116-2 G12C): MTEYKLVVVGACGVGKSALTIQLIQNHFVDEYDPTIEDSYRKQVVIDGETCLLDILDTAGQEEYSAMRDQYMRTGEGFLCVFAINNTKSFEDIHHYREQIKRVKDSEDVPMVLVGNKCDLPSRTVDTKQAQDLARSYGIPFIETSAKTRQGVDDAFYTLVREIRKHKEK
KRAS G12C, sequence (P62937 whole entry): as the sequence (P62937 whole entry) above
KRAS WT, sequence (P01116 1-169 isoform P01116-2 limits assumed): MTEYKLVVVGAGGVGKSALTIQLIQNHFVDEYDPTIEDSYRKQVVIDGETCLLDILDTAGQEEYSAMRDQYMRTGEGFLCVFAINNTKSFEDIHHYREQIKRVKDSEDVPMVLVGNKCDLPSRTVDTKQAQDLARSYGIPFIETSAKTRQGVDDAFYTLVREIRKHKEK
KRAS WT, sequence (P62937 whole entry): as the sequence (P62937 whole entry) above
KRAS G12D, sequence (P01116 1-169 isoform P01116-2 G12D limits assumed): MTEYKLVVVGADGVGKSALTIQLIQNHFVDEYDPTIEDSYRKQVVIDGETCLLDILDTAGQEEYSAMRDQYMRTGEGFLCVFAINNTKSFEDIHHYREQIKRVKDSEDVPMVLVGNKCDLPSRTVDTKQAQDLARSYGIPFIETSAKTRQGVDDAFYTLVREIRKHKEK
KRAS G12D, sequence (P62937 whole entry): as the sequence (P62937 whole entry) above

SMILES | IC50 (Capan-1 (K-Ras G12V)) | IC50 (NCI-H358 (K-Ras G12C)) | IC50 (KRAS G12C; [1]) | IC50 (KRAS G12D; [2]) | IC50 (KRAS G12S; [3]) | IC50 (KRAS G12V; [4]) | IC50 (KRAS G13C; [5]) | IC50 (KRAS G13D; [6]) | IC50 (KRAS WT; [7]) | IC50 (NRAS G12C; [8]) | IC50 (KRAS G12C; KRAS G12C FRET data, IC50) | IC50 (KRAS G12D; KRAS G12D FRET data, IC50) | IC50 (KRAS G12S; KRAS G12S FRET data, IC50) | IC50 (KRAS G12V; KRAS G12V FRET data IC50, KRAS G12V) | IC50 (KRAS G13C; KRAS G13C FRET data, IC50) | IC50 (KRAS G13D; KRAS G13D FRET data IC50, KRAS G13D) | IC50 (KRAS WT; KRAS WT FRET data IC50, KRAS WT) | IC50 (NRAS G12C; NRAS G12C FRET data IC50, NRAS G12C)
CCn1c(-c2cccnc2[C@H](C)OC)c2c3cc(ccc31)-c1csc(n1)C[C@H](NC(=O)[C@H](C(C)C)N(C)C(=O)[C@H]1CCCO1)C(=O)N1CCC[C@H](N1)C(=O)OCC(C)(C)C2 [Example A238] | 0.1 to 1 µM | 0.1 to 1 µM | 1 to 10 µM | > 10 µM | 1 to 10 µM | 1 to 10 µM | 1 to 10 µM | 1 to 10 µM | 1 to 10 µM | 1 to 10 µM |  |  |  |  |  |  |  | 
CCn1c(-c2cccnc2[C@H](C)OC)c2c3cc(ccc31)-c1csc(n1)C[C@H](NC(=O)[C@H](C(C)C)N(C)C(=O)[C@@H]1C[C@@H]1C)C(=O)N1CCC[C@H](N1)C(=O)OCC(C)(C)C2 [Example A239] | 0.1 to 1 µM | 0.1 to 1 µM | 1 to 10 µM | 1 to 10 µM | 1 to 10 µM | 1 to 10 µM | 1 to 10 µM | 1 to 10 µM | 1 to 10 µM | 1 to 10 µM |  |  |  |  |  |  |  | 
CCn1c(-c2cccnc2[C@H](C)OC)c2c3cc(ccc31)-c1cc(O)cc(c1)C[C@H](NC(=O)[C@H](C(C)C)N(C)C(=O)[C@H]1C[C@H](O)C1)C(=O)N1CCC[C@H](N1)C(=O)OCC(C)(C)C2 [Example A241] | 0.1 to 1 µM | 0.1 to 1 µM | 0.01 to 0.1 µM | 0.1 to 1 µM | 0.1 to 1 µM | 0.1 to 1 µM | 0.01 to 0.1 µM | 0.1 to 1 µM | 0.01 to 0.1 µM | 0.1 to 1 µM |  |  |  |  |  |  |  | 
CCn1c(-c2cccnc2[C@H](C)OC)c2c3cc(ccc31)-c1cc(O)cc(c1)C[C@H](NC(=O)[C@H](C(C)C)N(C)C(=O)[C@H]1CCCNC1)C(=O)N1CCC[C@H](N1)C(=O)OCC(C)(C)C2 [Example A243] | > 10 µM | 0.1 to 1 µM | 0.01 to 0.1 µM | 0.01 to 0.1 µM | 0.01 to 0.1 µM | 0.1 to 1 µM | 0.01 to 0.1 µM | 0.01 to 0.1 µM | 0.01 to 0.1 µM | 0.01 to 0.1 µM |  |  |  |  |  |  |  | 
CCN1CC(C(=O)N(C)[C@H](C(=O)N[C@H]2Cc3cc(O)cc(c3)-c3ccc4c(c3)c(c(-c3cccnc3[C@H](C)OC)n4CC)CC(C)(C)COC(=O)[C@@H]3CCCN(N3)C2=O)C(C)C)CC1=O (stereo partly drawn) [Example A248] | 0.1 to 1 µM | 0.01 to 0.1 µM | 0.01 to 0.1 µM | 0.1 to 1 µM | 0.01 to 0.1 µM | 0.1 to 1 µM and 0.01 to 0.1 µM | 0.01 to 0.1 µM | 0.1 to 1 µM and 0.01 to 0.1 µM | 0.1 to 1 µM and 0.01 to 0.1 µM | 0.01 to 0.1 µM |  |  |  |  |  |  |  | 
CCn1c(-c2cnccc2COC)c2c3cc(ccc31)-c1cc(O)cc(c1)C[C@H](NC(=O)[C@H](C(C)C)N(C)C(=O)[C@@H]1CCCN(C)C1)C(=O)N1CCC[C@H](N1)C(=O)OCC(C)(C)C2 [Example A259] | 1 to 10 µM | 1 to 10 µM | 0.1 to 1 µM | 0.1 to 1 µM | 0.1 to 1 µM | 1 to 10 µM | 0.1 to 1 µM | 0.1 to 1 µM | 0.1 to 1 µM | 0.1 to 1 µM |  |  |  |  |  |  |  | 
CCn1c(-c2cnccc2COC)c2c3cc(ccc31)-c1cc(O)cc(c1)C[C@H](NC(=O)[C@H](C(C)C)N(C)C(=O)O[C@H]1CCOC1)C(=O)N1CCC[C@H](N1)C(=O)OCC(C)(C)C2 [Example A260] | 1 to 10 µM | 0.1 to 1 µM | 0.1 to 1 µM | 1 to 10 µM | 0.1 to 1 µM | 1 to 10 µM | 1 to 10 µM | 1 to 10 µM | 0.1 to 1 µM | 0.1 to 1 µM |  |  |  |  |  |  |  | 
CCn1c(-c2cnccc2COC)c2c3cc(ccc31)-c1cc(O)cc(c1)C[C@H](NC(=O)C1CCCC1C(F)F)C(=O)N1CCC[C@H](N1)C(=O)OCC(C)(C)C2 (stereo partly drawn) [Example A261] | 1 to 10 µM | 1 to 10 µM | 1 to 10 µM | > 10 µM | 1 to 10 µM | 1 to 10 µM | 1 to 10 µM | 1 to 10 µM | 1 to 10 µM | 1 to 10 µM |  |  |  |  |  |  |  | 
CCN1C[C@@H](C(=O)N(C)[C@H](C(=O)N[C@H]2Cc3cc(O)cc(c3)-c3ccc4c(c3)c(c(-c3cnccc3COC)n4CC)CC(C)(C)COC(=O)[C@@H]3CCCN(N3)C2=O)C(C)C)CC1=O [Example A262] | 1 to 10 µM | 1 to 10 µM |  |  |  |  |  |  |  |  | 0.01 to 0.1 µM | 1 to 10 µM | 0.1 to 1 µM | 0.1 to 1 µM | 0.1 to 1 µM | 0.1 to 1 µM | 0.1 to 1 µM | 0.1 to 1 µM
